The subject of the test is Vaccinia virus. Put plainly: Antiviral activity against Vaccinia virus infected in human skin fibroblasts primed with interferon and superinduced with cyclohexamide and actinomycin D assessed as inhibition of virus-induced cytopathogenicity. The class given is functional. The following applies: Orthopoxvirus vaccinia. (In general: Damage to the host cells serves as the signal in cytopathic effect assays.)

Experimental findings from ChEMBL document CHEMBL3244322, “5-O-Alkylated derivatives of 5-hydroxy-2'-deoxyuridine as potential antiviral agents. Anti-herpes activity of 5-propynyloxy-2'-deoxyuridine” (J Med Chem, 1978) are described below.

Values after ≈ are worked out from the molar mass of the structure shown.

Consider `O=c1[nH]c(=O)n([C@H]2C[C@H](O)[C@@H](CO)O2)cc1O`, for which the MIC was found to be 40 µM (≈ 9.77 µg/mL).
With `C#CCOc1cn([C@H]2C[C@H](O)[C@@H](CO)O2)c(=O)[nH]c1=O` the figure was 140 µM (≈ 39.5 µg/mL); with `C=CCOc1cn([C@@H]2O[C@H](CO)[C@@H](O)[C@H]2O)c(=O)[nH]c1=O`, > 600 µM.
Regarding `C=CCOc1cn([C@H]2C[C@H](O)[C@@H](CO)O2)c(=O)[nH]c1=O`, the MIC amounted to 350 µM (≈ 99.5 µg/mL).
The value for `O=c1[nH]c(=O)n([C@@H]2O[C@H](CO)[C@@H](O)[C@H]2O)cc1OCc1ccccc1` was > 600 µM; that for `O=c1[nH]c(=O)n([C@H]2C[C@H](O)[C@@H](CO)O2)cc1OCc1ccccc1` was > 600 µM; that for `O=c1[nH]c(=O)n([C@@H]2O[C@H](CO)[C@@H](O)[C@H]2O)cc1OCc1ccc([N+](=O)[O-])cc1` was > 600 µM.
With `O=c1[nH]c(=O)n([C@H]2C[C@H](O)[C@@H](CO)O2)cc1OCc1ccc([N+](=O)[O-])cc1` the figure was > 520 µM; with `Cc1ccc(COc2cn([C@@H]3O[C@H](CO)[C@@H](O)[C@H]3O)c(=O)[nH]c2=O)cc1`, > 600 µM.
`NC(=O)COc1cn([C@@H]2O[C@H](CO)[C@@H](O)[C@H]2O)c(=O)[nH]c1=O`: the MIC is > 600 µM.
With `NC(=O)COc1cn([C@H]2C[C@H](O)[C@@H](CO)O2)c(=O)[nH]c1=O` the figure was 130 µM (≈ 39.2 µg/mL).
With `O=c1[nH]c(=O)n([C@H]2C[C@H](O)[C@@H](CO)O2)cc1I` [IDOXURIDINE] the figure was 1.4 µM (≈ 0.496 µg/mL).
With `Nc1ncnc2c1ncn2[C@@H]1O[C@H](CO)[C@@H](O)[C@@H]1O` [VIDARABINE] the figure was 26 µM (≈ 6.95 µg/mL).
